Assay results from patent US20030083822A2, “SYSTEMS AND METHODS FOR […] INFORMATICS” (PsychoGenics, Inc., priority 2001, published 2003).

System: mice
Assay: Transition-matrix analysis of behavior of drug-treated mice, coded by human observers (Figure 13)
Assay type: in vivo
Conditions: average matrix of drug treated mice normalized to control (vehicle) matrix; increase
Description: Testing drugs several times and comparing the results can address replication. Significance is illustrated in Figure 13, where exemplary data is shown from an experiment in which mice were treated with one of the indicated drugs ensuing behavior was recorded and later coded by human observers. In the analysis of transition matrices, the average matrix of the drug treated mice was combined with the average matrix of the control mice. The control data was treated as the "population" data as it was expected to have very large numbers from mice treated with same vehicle as more and more experiments that require such vehicle are conducted.
Referring again to Figure 13, the average transition matrix was transformed as a z-score matrix based on the mean and standard error of the control matrix. In doing so, every drug transition (fd,i) subtracted the corresponding control transition (fc,i) and divided by the standard error (sc,i), as in zd,i=((fd,i)-(fc,i))/(sc,i) was obtained. Although this is just one possible way to normalize the data (e.g., student t-scores can also be calculated), it has some intuitive appeal, as the z-scores can now be read as distance from the control in standard-deviation units. Thus, in Figure 13, the first cell of the matrix corresponding to chlordiazepoxide (CDP), can be read as "CDP increased the number of rear-rear transitions more than 30 fold". […]

## CNC1=Nc2ccc(Cl)cc2C(c2ccccc2)=[N+]([O-])C1 [CDP, chlordiazepoxide]
  number of rear-rear transitions (first cell of the z-score transition matrix): more than 30 fold
